This passage reports IC50 results from ChEMBL document CHEMBL1857833, “Screening and optimization of specific chemical series against human African Trypanosomiasis (HAT)”.

≈ marks a conversion by molar mass, not a printed value.

The nature of data set [1]: DNDI: Cytotoxicity against L929 mouse fibroblasts, CYTO-SP, 24 hour. Conditions: mouse, L929 mouse fibroblasts. The data set is classed as toxicity, cell-based.
Data set [2] in a line: DNDI: Cytotoxicity against L929 mouse fibroblasts, 72 hour. It counts as toxicity, cell-based. Conditions: mouse, L929 mouse fibroblasts.
The test system of a further data set is Trypanosoma brucei. As to the kind of experiment: DNDI: Inhibition of Human African Trypanosomiasis, SBRI 427, in vitro. It counts as functional, organism-based.
Setting [3] is: Trypanosoma brucei, SBRI 427, read-out: IC50.

For orientation: IC50 means the concentration that gives 50% inhibition. Turning to `CCOc1ccc(-c2nc(CN[C@]34C[C@H]5C[C@H](C[C@H](C5)C3)C4)co2)cc1`, in data set [1], the IC50 at 24 h was over 50 µg/mL. This compound also displayed an IC50 at 72 h in data set [2] of 28.4 µg/mL (≈ 80.5 µM). Moreover, the IC50 in the data set with Trypanosoma brucei (setting [3]) is over 5 µg/mL.
`CCCCCC(C)NCc1coc(-c2ccc(C(F)(F)F)cc2)n1` (stereo not drawn) had an IC50 at 24 h in data set [1] of over 50 µg/mL. For the same compound, in data set [2], the IC50 at 72 h came to 3.55 µg/mL (≈ 10.4 µM). Also, the half-maximal inhibitory concentration (IC50) with Trypanosoma brucei (setting [3]) turned out to be 1.63 µg/mL (≈ 4.79 µM).
`CCCCCC(C)NCc1cc(-c2ccccc2)n(C)n1` (stereo not drawn): in data set [1], the IC50 at 24 h came to 50 µg/mL (≈ 175 µM). Moreover, the IC50 at 72 h in data set [2] came to 12.8 µg/mL (≈ 45 µM). The IC50 in the data set with Trypanosoma brucei (setting [3]) turned out to be 4.05 µg/mL (≈ 14.2 µM).
Take `CCCCCC(C)NCc1ccc(-c2ccccc2)s1` (stereo not drawn): in data set [1], it took 23 µg/mL (≈ 80 µM) to reach half-maximal inhibition (IC50 at 24 h). The compound further gave an IC50 at 72 h in data set [2] of 7.16 µg/mL (≈ 24.9 µM). Besides, the IC50 in the data set on Trypanosoma brucei (setting [3]) was found to be 1.8 µg/mL (≈ 6.26 µM).
On to `CCCCCC(C)NCc1coc(-c2ccc(OC(F)(F)F)cc2)n1` (stereo not drawn), for which, in data set [1], the IC50 at 24 h was over 50 µg/mL. For the same compound, in data set [2], the IC50 at 72 h came out at 3.56 µg/mL (≈ 9.99 µM). Besides, the IC50 in the data set on Trypanosoma brucei (setting [3]) was 1.11 µg/mL (≈ 3.11 µM).
For `CCCCC[C@@H](C)NCc1coc(-c2ccc(Cl)cc2)n1`, in data set [1], the IC50 at 24 h is over 50 µg/mL. For the same compound, the 50% inhibitory concentration (IC50) at 72 h in data set [2] was 3.18 µg/mL (≈ 10.4 µM). Further, the IC50 in the data set on Trypanosoma brucei (setting [3]) worked out at 0.92 µg/mL (≈ 3 µM).
`COc1ccc(Oc2ncccc2/C(=N/O)NC2CCCCC2)cc1` registered an IC50 at 24 h in data set [1] of over 50 µg/mL. The IC50 at 72 h in data set [2] is over 10 µg/mL. The half-maximal inhibitory concentration (IC50) amounted to 0.33 µg/mL (≈ 0.967 µM) in the data set with Trypanosoma brucei and 0.29 µg/mL (≈ 0.849 µM) with Trypanosoma brucei (setting [3]).
The compound `CCCCCC(C)NCc1coc(-c2ccccc2C)n1` (stereo not drawn) came in with an IC50 at 24 h in data set [1] of 16 µg/mL (≈ 55.9 µM). This compound also registered a half-maximal inhibitory concentration (IC50) at 72 h in data set [2] of 3.6 µg/mL (≈ 12.6 µM). Besides, the IC50 with Trypanosoma brucei (setting [3]) stood at 4.1 µg/mL (≈ 14.3 µM).
With `CCCCCC(C)NCc1coc(-c2cc(F)cc(F)c2)n1` (stereo not drawn), the IC50 at 24 h in data set [1] was determined as 42 µg/mL (≈ 136 µM). Moreover, the IC50 at 72 h in data set [2] came out at 7.08 µg/mL (≈ 23 µM). Moreover, the IC50 in the data set with Trypanosoma brucei (setting [3]) was 1.71 µg/mL (≈ 5.55 µM).
In data set [1], `Clc1ccc(-c2nc(CNC3CCCCC3)co2)cc1` came in with an IC50 at 24 h of over 50 µg/mL. In data set [2], 6.85 µg/mL (≈ 23.6 µM) corresponded to half-maximal inhibition (IC50 at 72 h). In addition, the half-inhibitory concentration (IC50) in the data set with Trypanosoma brucei (setting [3]) is 1.86 µg/mL (≈ 6.4 µM).
For the compound `CCCCCC(C)NCc1cc(-c2ccccc2)nn1C` (stereo not drawn), half-maximal inhibition in data set [1] (IC50 at 24 h) required 50 µg/mL (≈ 175 µM). This compound returned an IC50 at 72 h in data set [2] of 12.7 µg/mL (≈ 44.5 µM). Besides, the IC50 with Trypanosoma brucei (setting [3]) worked out at 3.38 µg/mL (≈ 11.8 µM).
On to `CCCCCC(C)NCc1coc(-c2ccc(F)cc2)n1` (stereo not drawn), for which the IC50 at 24 h in data set [1] was 17 µg/mL (≈ 58.5 µM). Further, the IC50 at 72 h in data set [2] was determined as 7.1 µg/mL (≈ 24.5 µM). For the same compound, in the data set on Trypanosoma brucei (setting [3]), the IC50 was 2.71 µg/mL (≈ 9.33 µM).
For `CCCCCC(C)NCc1coc(-c2cccc3ccccc23)n1` (stereo not drawn) the same measures were 16 µg/mL (≈ 49.6 µM), 6.56 µg/mL (≈ 20.3 µM) and 1.14 µg/mL (≈ 3.54 µM).
Turning to `CCCCCC(C)OCc1coc(-c2ccccc2)n1` (stereo not drawn), the IC50 at 24 h in data set [1] is over 50 µg/mL. The same compound came in with an IC50 at 72 h in data set [2] of 27.7 µg/mL (≈ 101 µM). In the data set with Trypanosoma brucei (setting [3]), the 50% inhibitory concentration (IC50) is over 5 µg/mL.
For the compound `CCOc1ccc(-c2nc(CNC3CC4CCC3C4)co2)cc1` (stereo not drawn), in data set [1], the IC50 at 24 h was determined as 35 µg/mL (≈ 112 µM). The compound also showed an IC50 at 72 h in data set [2] of 4.62 µg/mL (≈ 14.8 µM). In the data set with Trypanosoma brucei (setting [3]), the IC50 amounted to 4.1 µg/mL (≈ 13.1 µM).
`CCCCC[C@H](C)NCc1coc(-c2ccc(Cl)cc2)n1` displayed an IC50 at 24 h in data set [1] of 37 µg/mL (≈ 121 µM). In addition, the IC50 at 72 h in data set [2] amounted to 7.01 µg/mL (≈ 22.8 µM). For the same compound, the IC50 in the data set with Trypanosoma brucei (setting [3]) is 1.76 µg/mL (≈ 5.74 µM).
Regarding `CCN(CC)Cc1coc(-c2ccc(Cl)cc2)n1`, in data set [1], the IC50 at 24 h is over 50 µg/mL. The IC50 at 72 h in data set [2] is 39.5 µg/mL (≈ 149 µM). In addition, in the data set on Trypanosoma brucei (setting [3]), the IC50 is over 5 µg/mL.
Compound `CCCCC[C@@H](C)N(Cc1coc(-c2ccc(Cl)cc2)n1)Cc1coc(-c2ccc(Cl)cc2)n1` had an IC50 at 24 h in data set [1] of over 50 µg/mL. In data set [2], this compound displayed an IC50 at 72 h of over 50 µg/mL. Also, the IC50 with Trypanosoma brucei (setting [3]) was over 5 µg/mL.
Turning to `CCCCCC(C)NCc1coc(-c2cc3ccccc3s2)n1` (stereo not drawn), in data set [1], the half-inhibitory concentration (IC50) at 24 h was over 50 µg/mL. The compound also yielded an IC50 at 72 h in data set [2] of 3.46 µg/mL (≈ 10.5 µM). The IC50 with Trypanosoma brucei (setting [3]) was 1.36 µg/mL (≈ 4.14 µM).
In turn, `Clc1ccc(-c2nc(CNC3CC4CCC3C4)co2)cc1` (stereo not drawn) registered an IC50 at 24 h in data set [1] of 40.7 µg/mL (≈ 134 µM). For the same compound, the IC50 at 72 h in data set [2] is 3.47 µg/mL (≈ 11.5 µM). In the data set on Trypanosoma brucei (setting [3]), the concentration for half-maximal inhibition (IC50) came out at 2.81 µg/mL (≈ 9.28 µM).
For the compound `O=C(O)c1coc(-c2ccccc2)n1`, in data set [1], the IC50 at 24 h was over 50 µg/mL. Besides, in data set [2], the IC50 at 72 h was over 50 µg/mL. Also, the IC50 in the data set with Trypanosoma brucei (setting [3]) was over 5 µg/mL.
The compound `CCCCCC(C)NCc1cccc(-c2ccccc2)c1` (stereo not drawn) came in with an IC50 at 24 h in data set [1] of over 50 µg/mL. The IC50 at 72 h in data set [2] stood at 3.39 µg/mL (≈ 12 µM). Moreover, the IC50 in the data set with Trypanosoma brucei (setting [3]) is 0.81 µg/mL (≈ 2.88 µM).
For `C[C@@H](NCc1coc(-c2ccc(Cl)cc2)n1)C1CCCCC1` the same measures were over 50 µg/mL, under 3.13 µg/mL and 1.74 µg/mL (≈ 5.46 µM).
For `CCCCCC(C)NCc1coc(-c2cccc(C)c2)n1` (stereo not drawn) the same measures were 16 µg/mL (≈ 55.9 µM), 7.13 µg/mL (≈ 24.9 µM) and 3.33 µg/mL (≈ 11.6 µM).
`CCCCCC(C)NCc1coc(-c2ccc(SC(F)(F)F)cc2)n1` (stereo not drawn): the IC50 at 24 h in data set [1] was over 50 µg/mL. Also, in data set [2], the IC50 at 72 h is 3.64 µg/mL (≈ 9.77 µM). Besides, the IC50 in the data set with Trypanosoma brucei (setting [3]) was determined as 1.12 µg/mL (≈ 3.01 µM).
Take `CCCCCC(C)NCc1coc(-c2ccccc2OC(F)(F)F)n1` (stereo not drawn): in data set [1], the IC50 at 24 h amounted to 37 µg/mL (≈ 104 µM). In data set [2], this compound showed an IC50 at 72 h of 3.23 µg/mL (≈ 9.06 µM). In addition, the IC50 in the data set with Trypanosoma brucei (setting [3]) came out at 1.48 µg/mL (≈ 4.15 µM).
In data set [1], `CCCCCC(C)NCc1ccc(-c2ccccc2)o1` (stereo not drawn) displayed an IC50 at 24 h of 32 µg/mL (≈ 118 µM). The compound also registered an IC50 at 72 h in data set [2] of 7.14 µg/mL (≈ 26.3 µM). Besides, in the data set with Trypanosoma brucei (setting [3]), the IC50 was found to be 3.62 µg/mL (≈ 13.3 µM).
The compound `CCCCCC(C)NCc1coc(-c2ccccc2F)n1` (stereo not drawn) returned an IC50 at 24 h in data set [1] of 13 µg/mL (≈ 44.8 µM). Further, the IC50 at 72 h in data set [2] is 3.59 µg/mL (≈ 12.4 µM). For the same compound, in the data set with Trypanosoma brucei (setting [3]), the IC50 worked out at 1.82 µg/mL (≈ 6.27 µM).
For `CCCCCC(C)NCc1coc(-c2cccs2)n1` (stereo not drawn) the same measures were over 50 µg/mL, 13.5 µg/mL (≈ 48.6 µM) and 3.83 µg/mL (≈ 13.8 µM).
